Experimental data taken from patent US7148193B2, “Compounds that bind to growth hormone receptor” (Antyra, Inc., priority 1997, dated 2006).
Where a chain is given by its changes, count along the chain named. Where a SMILES comes first, the peptide text is derived from it. Bridges are numbered along the chain shown (N, C = ends).

Key:
rGHBP [1] = molecular target: T1, rGHBP (Rattus norvegicus, UniProt P16310); experiment: Phage ELISA binding and competition on rGHBP coated wells
T1 construct: 1–48 of GHBP; The 3′ oligo used for this reaction encoded the mutation L43R (CTG→AGA); The second PCR reaction amplified the DNA encoding amino acids 38–260; 6xHis; made in house
T1 sequence (P16310 19-278 isoform P16310-2): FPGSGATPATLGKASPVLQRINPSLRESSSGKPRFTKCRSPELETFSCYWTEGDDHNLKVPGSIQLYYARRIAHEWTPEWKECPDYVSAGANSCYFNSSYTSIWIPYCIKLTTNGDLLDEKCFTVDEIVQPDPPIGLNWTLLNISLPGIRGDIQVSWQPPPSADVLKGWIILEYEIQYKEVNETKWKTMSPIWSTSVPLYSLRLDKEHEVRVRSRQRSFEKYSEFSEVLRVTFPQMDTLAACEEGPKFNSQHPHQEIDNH
Protocol: For analysis of individual clones, colonies were picked and phage prepared as described above. Microtiter wells were coated and blocked as described above. Wells were coated with either rGHBP or a control IgG MAb. Phage resuspended in MPBS were added to duplicate wells (100 μl/well) and incubated at room temperature for 1 hr. The phage solution was then removed, and the wells were washed three times with PBS at room temperature. Anti-M13 antibody conjugated to horseradish peroxidase (Pharmacia Biotech) was diluted 1:3000 in MPBS and added to each well (100 μl/well). Incubation was for another hour at room temperature, followed by PBS washes as described. Color was developed by addition of ABTS solution (100 μl/well; Boehringer). Color development was stopped by adjusting each well to 0.5% SDS. Plates were analyzed at 405 nm using a SpectraMax 340 plate reader (Molecular Devices) and SoftMax Pro software. Data points were averaged after subtraction of appropriate blanks. A clone was considered “positive” if the A405 of the well was >2-fold over background. […]
These clones were next analyzed for binding to the receptor's active sites (FIG. 2B). Competitions of phage binding were done both with the cognate ligand (i.e., GH) and with a specific target-neutralizing MAb 2C3 (Wang, B. S., et al. Mol. Cellular Endocrinology, vol. 116, p. 223–226, 1996).
Clones were tested for the presence of E-tag and binding to ‘hu’ GHBP, rGHBP, or BSA-coated wells. Those having specific GHBP binding (i.e., at least 2 fold greater binding to the GHBP than BSA) and with an E-tag positive signal were subjected to DNA sequencing. Three different clones were isolated and tested a second time against GHBP plus and minus GH (1 μM) or BSA (1 μM) coated wells as described. In these tests, huGH was used as competitor with ‘hu’ GHBP coated wells and bovineGH was used as a competitor with rat GHBP coated wells. […] The following open reading frame insertion including the DYKD (SEQ ID NO:79) amino terminal tag and up to the C-terminal E-tag was obtained for these clones; and is shown in Table III: […]

rGHBP [2] = molecular target: T1, rGHBP; experiment: Species specificity of binding by ELISA and BIAcore, rGHBP; settings: in words
Protocol: (§1) Wells were coated with either recombinant rGHBP or ‘hu’ GHBP (100 ng/well). Additions of H5 (SEQ ID NO:8) and H10 (SEQ ID NOS:9, 80, and 81) phage (10^10/well) and detection were made as described. […] Streptavidin chips were coated with H5 (SEQ ID NO:8) to 1100 RU as described and rGHBP or ‘hu’ GHBP (500 μg/ml) injected as 30 μl samples.
(§2) Growth hormone receptors from different species bind human GH as well as their own GH, however human GHR only binds human or monkey GH. […] The sequence of rGHBP was altered by PCR to create a “humanized” version (‘hu’ GHBP; FIG. 9A). Partially purified ‘hu’GHBP (FIG. 9B) was tested for binding using ELISA and BIAcore analysis. […] This was confirmed by BIAcore analysis (FIG. 10B).
(§3) The biotinylated control peptide (SEQ ID NO:10) was immobilized onto one flow cell of a SA-5 (streptavidin coated) sensor chip to a final density of 700 RU. On a second flow cell, either hGH (1100 RU final density), H5WT peptide (SEQ ID NO:8; 1100 RU final density), or bGH (730 RU final density) was immobilized. GHBP (either rat or humanized) was injected at a concentration of 500 μg/ml with a flow rate of 5 μl/min. Background binding to the control surface was subtracted prior to further analysis.

‘hu’ GHBP = molecular target: T2, ‘hu’ GHBP (Rattus norvegicus, UniProt P16310, L61R); experiment: Species specificity of binding by ELISA and BIAcore, 'hu' GHBP; settings: in words
T2 construct: 1–48 of GHBP; The 3′ oligo used for this reaction encoded the mutation L43R (CTG→AGA); The second PCR reaction amplified the DNA encoding amino acids 38–260; 6xHis; made in house
T2 sequence (P16310 19-278 isoform P16310-2 L61R): T1 sequence (P16310 19-278 isoform P16310-2) with L43R
Protocol: as §1, §2, §3

Question: Which results are given for `CC(C)C[C@@H]1NC(=O)[C@H](CO)NC(=O)[C@H](CCC(N)=O)NC(=O)[C@@H](NC(=O)[C@H](CC(C)C)NC(=O)[C@H](CC(=O)O)NC(=O)[C@H](CCCCN)NC(=O)[C@H](Cc2ccc(O)cc2)NC(=O)[C@@H](N)CC(=O)O)CSSC[C@@H](C(=O)N[C@@H](C)C(=O)N[C@@H](CCCCN)C(=O)N[C@@H](CCCCN)C(=O)O)NC(=O)[C@H](Cc2c[nH]c3ccccc23)NC(=O)CNC(=O)[C@H](C)NC(=O)[C@H](CC(C)C)NC(=O)[C@H](Cc2c[nH]c3ccccc23)NC(=O)CNC(=O)[C@@H]2CCCN2C(=O)[C@H](Cc2ccc(O)cc2)NC(=O)[C@H]([C@@H](C)O)NC(=O)[C@H](C(C)C)NC(=O)CNC1=O` [H5] (H-DYKDLCQSLGVTYPGWLAGWCAKK-OH; disulfide 6-21; N-terminus and C-terminus assumed)?
Answer: ELISA Competition, rGHBP, +BSA (rGHBP [1]; ELISA signal, BSA 1 μM, phage concentrated 15×): 1.87; ELISA Competition, rGHBP, +bGH (rGHBP [1]; ELISA signal, bovine GH 1 μM, phage concentrated 15×): 0.32; ELISA Competition, rGHBP, none (rGHBP [1]; ELISA signal, no competitor, phage concentrated 15×): 1.91; phage binding to rGHBP blocked by GH and MAb 2C3 (rGHBP [1]; competition ELISA of phage binding): blocked both by GH and by MAb 2C3; binding to rGHBP (rGHBP [2]): bound to rGHBP; binding to ‘hu’ GHBP (‘hu’ GHBP): not ‘hu’GHBP
